The target in data set [1] is T1, Sodium-dependent dopamine transporter (Homo sapiens, UniProt Q01959). Put plainly: Inhibition of wild type human dopamine transporter expressed in HEK293 cells assessed as inhibition of [3H]dopamine reuptake preincubated for 5 mins followed by [3H]dopamine addition and measured after 1 min by liquid scintillation analysis. The data set is classed as cell-based. The following applies: read-out: IC50.

Data set [2] in a line: Cardiotoxicity in human Cor.4U hiPSC-CM cells assessed as effect on action potential duration at 10 uM measured after 30 mins by FluoVolt dye based fluorescence assay. The data set is classed as toxicity. The following applies: 0.5 h.
Data set [3] deals with T2, Sodium-dependent noradrenaline transporter (Homo sapiens, UniProt P23975). Briefly: Inhibition of wild type human NET expressed in HEK293 cells assessed as inhibition of [3H]-MPP+ reuptake preincubated for 5 mins followed by [3H]MPP+ addition and measured after 3 mins by liquid scintillation counting analysis. The data set is classed as cell-based.
Data set [4] can be described thus: Cardiotoxicity in human Cor.4U hiPSC-CM cells assessed as effect on action potential shape at 10 uM measured after 30 mins by FluoVolt dye based fluorescence assay. The data set is classed as toxicity. Particulars: 0.5 h.
A short description of data set [5]: Cardiotoxicity in human Cor.4U hiPSC-CM cells assessed as early after depolarization at 10 uM measured after 30 mins by FluoVolt dye based fluorescence assay. The data set is classed as toxicity. Particulars: 0.5 h.
Data set [6] addresses Sodium-dependent serotonin transporter (Homo sapiens, UniProt P31645). The data set is classed as cell-based, HEK293.
Description: Inhibition of wild type human SERT expressed in HEK293 cells assessed as inhibition of [3H]-5HT reuptake preincubated for 5 mins followed by [3H]5HT addition and measured after 1 min by liquid scintillation counting analysis
Data set [7] in a line: Half life in Sprague-Dawley rat at 10 mg/kg, ip compound dissolved in DMSO/Tween 80/Saline by HPLC-MS analysis. The data set is classed as ADME, organism-based. The following applies: in vivo.
The nature of data set [8]: AUC(0 to infinity) in Sprague-Dawley rat at 10 mg/kg, ip compound dissolved in DMSO/Tween 80/Saline by HPLC-MS analysis. The data set is classed as ADME, organism-based. Further details: dose 10 mg/kg, time infinity, route intraperitoneal. The following applies: in vivo.
Data set [9] in a line: Plasma concentration in Sprague-Dawley rat at 10 mg/kg, ip compound dissolved in DMSO/Tween 80/Saline measured after 1 hr by HPLC-MS analysis. The data set is classed as ADME, organism-based.
Another data set has as its system Cortical neurone. Briefly: Cytotoxicity in rat cortical neuron assessed as inhibition of cell viability incubated for 72 hrs by Hoechst 33342 staining based ArrayScan analysis.
Data set [10] in a line: Neurotoxicity in rat cortical neuron assessed as inhibition of neurite outgrowth by measuring mean neurite average length incubated for 72 hrs by Hoechst 33342 staining based ArrayScan analysis. The data set is classed as toxicity, cell-based, Cortical neurone. The following applies: rat cortical neurons.
Data set [11] in a line: Neurotoxicity in rat cortical neuron assessed as inhibition of valid neuron count incubated for 72 hrs by Hoechst 33342 staining based ArrayScan analysis. The data set is classed as toxicity, cell-based, Cortical neurone. Particulars: rat cortical neurons.
A short description of data set [12]: Neurotoxicity in rat cortical neuron assessed as inhibition of neurite total length per neuron incubated for 72 hrs by Hoechst 33342 staining based ArrayScan analysis. Particulars: rat cortical neurons. The data set is classed as toxicity, cell-based, Cortical neurone.
In data set [13] the target is T2, Sodium-dependent noradrenaline transporter. Briefly: Inhibition of wild type human NET expressed in HEK293 cells assessed as inhibition of [3H]-MPP+ reuptake preincubated for 8 mins followed by [3H]MPP+ addition and measured after 3 mins by liquid scintillation counting analysis. The data set is classed as cell-based.
The target in data set [14] is T1, Sodium-dependent dopamine transporter. Briefly: Inhibition of human DAT expressed in HEK293 cells preloaded with [3H]-MPP+ assessed as decrease in tritium efflux at 10 uM measured every 4 mins by liquid scintillation counting analysis. The data set is classed as cell-based.
Data set [15] in a line: Plasma concentration in Sprague-Dawley rat at 7.5 mg/kg, ip compound dissolved in 40% Kolliphor-EL in water measured after 7 hrs by LC-MS/MS analysis. The data set is classed as ADME, organism-based.
Data set [16] deals with T1, Sodium-dependent dopamine transporter. Briefly: Inhibition of human DAT expressed in HEK293 cells preloaded with [3H]-MPP+ assessed as reduction in D-amphetamine-induced tritium efflux at 10 uM treated with compound prior to amphetamine challenge measured every 4 mins by liquid scintillation counting analysis. The data set is classed as cell-based.
A short description of data set [17]: Plasma concentration in Sprague-Dawley rat at 7.5 mg/kg, ip compound dissolved in 40% Kolliphor-EL in water measured after 1 hr by LC-MS/MS analysis. The data set is classed as ADME, organism-based.
Data set [18] in a line: Ratio of IC50 for neurotoxicity against rat cortical neuron assessed as inhibition of mean neurite average length by ArrayScan analysis to IC50 for wild type human dopamine transporter expressed in HEK293 cells.
Data set [19] addresses T1, Sodium-dependent dopamine transporter. Put plainly: Potency index, ratio of (R)-modafinil IC50 to compound IC50 for wild type human dopamine transporter expressed in HEK293 cells assessed as inhibition of [3H]dopamine reuptake preincubated for 5 mins followed by [3H]dopamine addition and measured after 1 min by liquid scintillation analysis. The data set is classed as cell-based.

The nature of data set [20]: Ratio of IC50 for neurotoxicity against rat cortical neuron assessed as inhibition of neurite total length per neuron by ArrayScan analysis to IC50 for wild type human dopamine transporter expressed in HEK293 cells.
Data set [21] is described as follows: Drug level in Sprague-Dawley rat brain at 7.5 mg/kg, ip compound dissolved in 40% Kolliphor-EL in water measured after 1 hr by LC-MS/MS analysis. The data set is classed as ADME, organism-based. Particulars: read-out: Ct.
Data set [22] has as its system Rattus norvegicus. Put plainly: Increase in extracellular dopamine level in Sprague-Dawley rat nucleus accumbens in brain at 1 mg/kg, ip measured after 50 mins by RP-HPLC analysis based microdialysis method. The data set is classed as functional, organism-based.
Data set [23] can be described thus: Drug level in Sprague-Dawley rat brain at 7.5 mg/kg, ip compound dissolved in 40% Kolliphor-EL in water measured after 3 hrs by LC-MS/MS analysis. The data set is classed as ADME, organism-based. The following applies: read-out: Ct.
Data set [24] can be described thus: AUC(0 to infinity) in Sprague-Dawley rat at 7.5 mg/kg, ip compound dissolved in 40% Kolliphor-EL in water by LC-MS/MS analysis. The data set is classed as ADME, organism-based. Further details: dose 7.5 mg/kg, time infinity, route intraperitoneal. Particulars: in vivo.
Data set [25] is described as follows: Drug level in Sprague-Dawley rat brain at 7.5 mg/kg, ip compound dissolved in 40% Kolliphor-EL in water measured after 7 hrs by LC-MS/MS analysis. The data set is classed as ADME, organism-based. Particulars: read-out: Ct.
Data set [26] in a line: Drug level in Sprague-Dawley rat brain at 7.5 mg/kg, ip compound dissolved in 40% Kolliphor-EL in water measured after 10 hrs by LC-MS/MS analysis. The data set is classed as ADME, organism-based. Particulars: in vivo, BLD = below limit of detection.
Data set [27] is described as follows: Plasma concentration in Sprague-Dawley rat at 7.5 mg/kg, ip compound dissolved in 40% Kolliphor-EL in water measured after 3 hrs by LC-MS/MS analysis. The data set is classed as ADME, organism-based.
A short description of data set [28]: Half life in Sprague-Dawley rat at 7.5 mg/kg, ip compound dissolved in 40% Kolliphor-EL in water by LC-MS/MS analysis. The following applies: in vivo. The data set is classed as ADME, organism-based.
A short description of data set [29]: Plasma concentration in Sprague-Dawley rat at 7.5 mg/kg, ip compound dissolved in 40% Kolliphor-EL in water measured after 10 hrs by LC-MS/MS analysis. The data set is classed as ADME, organism-based.
For data set [30], the target named is T1, Sodium-dependent dopamine transporter. Put plainly: Potency index, ratio of modafinil IC50 to compound IC50 for wild type human dopamine transporter expressed in HEK293 cells assessed as inhibition of [3H]dopamine reuptake preincubated for 5 mins followed by [3H]dopamine addition and measured after 1 min by liquid scintillation analysis. The data set is classed as cell-based.

Data set [31] deals with Rattus norvegicus. Briefly: Increase in extracellular dopamine level in Sprague-Dawley rat nucleus accumbens in brain at 10 mg/kg, ip measured after 50 mins by RP-HPLC analysis based microdialysis method relative to control. The data set is classed as functional.
Data set [32] can be described thus: Ratio of IC50 for neurotoxicity against rat cortical neuron assessed as inhibition of valid neuron count by ArrayScan analysis to IC50 for wild type human dopamine transporter expressed in HEK293 cells.

Activity calls are given as the source filed them. Unless noted, no cut-off for these calls is given here.

Sequence of Sodium-dependent serotonin transporter (P31645 whole entry): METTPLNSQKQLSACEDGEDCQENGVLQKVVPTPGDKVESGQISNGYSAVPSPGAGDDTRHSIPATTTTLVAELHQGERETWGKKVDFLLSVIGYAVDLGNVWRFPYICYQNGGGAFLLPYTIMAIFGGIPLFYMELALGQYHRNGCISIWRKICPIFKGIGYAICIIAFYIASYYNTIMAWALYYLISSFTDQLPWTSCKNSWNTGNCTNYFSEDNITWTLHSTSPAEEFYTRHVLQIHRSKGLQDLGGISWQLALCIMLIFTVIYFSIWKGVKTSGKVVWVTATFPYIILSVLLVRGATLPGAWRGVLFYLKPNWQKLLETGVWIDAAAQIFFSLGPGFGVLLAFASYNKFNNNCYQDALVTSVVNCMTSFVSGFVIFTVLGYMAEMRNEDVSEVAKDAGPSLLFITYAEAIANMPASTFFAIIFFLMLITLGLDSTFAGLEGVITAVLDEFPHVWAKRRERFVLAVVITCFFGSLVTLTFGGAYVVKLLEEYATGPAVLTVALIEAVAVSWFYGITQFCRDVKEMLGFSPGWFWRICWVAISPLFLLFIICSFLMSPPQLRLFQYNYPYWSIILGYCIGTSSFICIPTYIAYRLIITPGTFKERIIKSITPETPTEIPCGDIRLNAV
T1 sequence (Q01959 whole entry): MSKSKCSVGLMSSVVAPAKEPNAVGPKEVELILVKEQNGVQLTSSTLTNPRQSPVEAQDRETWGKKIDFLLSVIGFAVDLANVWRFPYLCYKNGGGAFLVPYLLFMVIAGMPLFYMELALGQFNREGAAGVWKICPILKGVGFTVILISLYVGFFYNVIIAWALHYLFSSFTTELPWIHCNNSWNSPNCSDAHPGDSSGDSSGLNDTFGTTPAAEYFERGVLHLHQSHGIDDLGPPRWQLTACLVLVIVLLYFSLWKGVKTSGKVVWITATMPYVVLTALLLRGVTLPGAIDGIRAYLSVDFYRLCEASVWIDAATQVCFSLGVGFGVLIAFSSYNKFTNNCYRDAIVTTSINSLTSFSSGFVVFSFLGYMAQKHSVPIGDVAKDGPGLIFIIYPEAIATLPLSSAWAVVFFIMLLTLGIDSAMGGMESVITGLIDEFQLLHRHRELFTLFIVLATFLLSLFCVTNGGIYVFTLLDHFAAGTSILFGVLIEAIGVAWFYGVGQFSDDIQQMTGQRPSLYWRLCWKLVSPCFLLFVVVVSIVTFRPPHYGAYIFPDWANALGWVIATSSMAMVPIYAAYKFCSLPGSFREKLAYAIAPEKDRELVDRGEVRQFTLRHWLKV
T2 sequence (P23975 whole entry): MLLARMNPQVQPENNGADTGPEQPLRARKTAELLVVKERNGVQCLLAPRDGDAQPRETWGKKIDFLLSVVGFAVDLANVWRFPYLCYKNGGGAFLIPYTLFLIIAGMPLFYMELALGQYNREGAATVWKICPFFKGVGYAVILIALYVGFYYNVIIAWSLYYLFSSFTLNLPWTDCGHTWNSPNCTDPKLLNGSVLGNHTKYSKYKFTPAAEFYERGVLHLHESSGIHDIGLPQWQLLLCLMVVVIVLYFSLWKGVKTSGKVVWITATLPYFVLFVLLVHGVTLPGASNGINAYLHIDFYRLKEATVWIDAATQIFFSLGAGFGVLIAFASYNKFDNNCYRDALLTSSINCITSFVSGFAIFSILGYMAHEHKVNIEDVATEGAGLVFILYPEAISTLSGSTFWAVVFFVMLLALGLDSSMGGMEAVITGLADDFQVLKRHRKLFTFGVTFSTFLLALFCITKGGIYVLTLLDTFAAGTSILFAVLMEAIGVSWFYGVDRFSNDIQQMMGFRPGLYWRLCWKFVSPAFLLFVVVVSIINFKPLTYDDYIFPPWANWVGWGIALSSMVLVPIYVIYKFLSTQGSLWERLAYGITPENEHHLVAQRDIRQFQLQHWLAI

In the case of `[O-][S@@+](Cc1cscn1)[C@H](c1ccccc1)c1ccc(Br)cc1`, the IC50 (usually the concentration needed to halve the response being measured) in [1] is 2.99 µM; in [3] (hek293), “Not Active”; in data set [6] (hek293), “Not Active”. For the same compound, the Activity entry in data set [2], in data set [4] and in data set [5] was “Non-Toxic” each time.
As for `[O-][S@+](Cc1cscn1)[C@H](c1ccccc1)c1ccc(Br)cc1`, the IC50 in [1] stood at 1.09 µM; in data set [3] (read-out: IC50), 52.6 µM; in data set [6] (read-out: IC50), 58.6 µM. Further, the Activity result in data set [2], in data set [4] and in [5] was “Non-Toxic” throughout.
`NC(=O)C[S@@+]([O-])C(c1ccccc1)c1ccccc1` [ARMODAFINIL]: the half-life (as a rule, the time in which the quantity being followed falls by half) in data set [7] is 24 min. The IC50 in [3] (read-out: IC50) was found to be 170 µM. In addition, the AUC(0-inf) – broadly, the area under the concentration-time curve extrapolated to infinity – in data set [8] amounted to 1.18 µM·h. Besides, the concentration at 1 h in data set [9] turned out to be 3900 ng/mL.
In the case of `CN(C)CCCN1c2ccccc2Sc2ccc(Cl)cc21` [CHLORPROMAZINE], in the data set with Cortical neurone, the Activity entry is “Non-Toxic”. The IC50 at 72 h in data set [10] was 9.02 µM; in [11], 7.99 µM; in data set [12], 13.8 µM.
As to `[O-][S@+](Cc1cscn1)[C@@H](c1ccccc1)c1ccc(Br)cc1`, the IC50 in data set [1] was 63.7 µM; in [3] (hek293) it was “Not Active”; in data set [6] (hek293), “Not Active”. Further, the Activity result in data set [2], in [4] and in [5] was “Non-Toxic” in each case.
`Cc1nc(C[S+]([O-])C(c2ccccc2)c2ccccc2)cs1` (stereo not given): the values for the IC50 in data set [1], in data set [13] and in data set [6] (hek293) were 3.25 µM, 174 µM and “Not Active”, respectively.
`COC(=O)Nc1nc2ccc(C(=O)c3cccs3)cc2[nH]1` [NOCODAZOLE]: the Activity result in the data set on Cortical neurone is on record as “Toxic”. Also, the IC50 at 72 h in data set [10] is 0.097 µM; in data set [11], 2.22 µM; in data set [12], 0.0997 µM.
Turning to `[O-][S@@+](Cc1cscn1)[C@@H](c1ccccc1)c1ccc(Br)cc1`, the IC50 was 0.65 µM in [1], 73.3 µM in data set [3] (read-out: IC50) and “Not Active” in data set [6] (hek293). In addition, the Activity entry in data set [2] is on record as “Non-Toxic”; in data set [4], “Non-Toxic”; in [5], “Non-Toxic”; with Rattus norvegicus [31] it was 20%. Besides, the inhibition entry in [14] and in data set [16] was “Active” each time. Moreover, the concentration at 7 h came out at 89.6 nM in data set [15] and 44.3 nM in data set [25]. Further, the IC50 at 72 h in data set [10], in data set [11] and in data set [12] was above 100 µM each time. The results for the concentration at 1 h in data set [17] and in data set [21] were 2200 nM and 803 nM, respectively. The “Ratio IC50” value in [18] was above 100; in data set [19], 10; in data set [20] it was above 100; in [30], 20; in data set [32] it was above 100. Further, the result in the data set on Rattus norvegicus [22] was inactive. The concentration at 3 h in data set [23] turned out to be 409 nM; in [27], 1210 nM. In [24], this compound yielded an AUC(0-inf) of 5.84 µM·h. For the same compound, the Ct entry in [26] is listed as “Bld”. In data set [28], this compound showed a half-life of 96 min. Besides, in data set [29], the concentration at 10 h is 23.8 nM.
As to `[O-][S+](Cc1cncs1)C(c1ccccc1)c1ccccc1` (stereo not given), the IC50 in data set [1] came to 4.61 µM. In addition, in data set [7], the half-life was 54 min. This compound came in with an area under the curve AUC(0-inf) in data set [8] of 13.5 µM·h.
Consider `Cc1ccc(C(c2ccc(C)cc2)[S+]([O-])Cc2cscn2)cc1` (stereo not given), for which the IC50 in [1] is 7.32 µM; in [3] (hek293), “Not Active”; in [6] (hek293) it was “Not Active”.
As to `Cc1ccc([C@H](c2ccccc2)[S@@+]([O-])Cc2cncs2)cc1`, the values for the IC50 in data set [1], in data set [3] (read-out: IC50) and in data set [6] (hek293) were 3.3 µM, 164 µM and “Not Active”, respectively.
